From ChEMBL document CHEMBL3991601, “The target landscape of clinical kinase drugs” (Science, 2017) come the findings set out here.

Active and inactive are the calls of the source.

Experiment [1] deals with Dual specificity protein kinase CLK3 (Homo sapiens, UniProt P49761). It is filed as subcellular, K-562, COLO 205, SK-N-BE(2) and MV-4-11, Cell lysate. The note with it: read-out: Kd apparent.
In experiment [2] the target is T1, Long-chain-fatty-acid--CoA ligase 5 (Homo sapiens, UniProt Q9ULC5).
T1 sequence (Q9ULC5 whole entry): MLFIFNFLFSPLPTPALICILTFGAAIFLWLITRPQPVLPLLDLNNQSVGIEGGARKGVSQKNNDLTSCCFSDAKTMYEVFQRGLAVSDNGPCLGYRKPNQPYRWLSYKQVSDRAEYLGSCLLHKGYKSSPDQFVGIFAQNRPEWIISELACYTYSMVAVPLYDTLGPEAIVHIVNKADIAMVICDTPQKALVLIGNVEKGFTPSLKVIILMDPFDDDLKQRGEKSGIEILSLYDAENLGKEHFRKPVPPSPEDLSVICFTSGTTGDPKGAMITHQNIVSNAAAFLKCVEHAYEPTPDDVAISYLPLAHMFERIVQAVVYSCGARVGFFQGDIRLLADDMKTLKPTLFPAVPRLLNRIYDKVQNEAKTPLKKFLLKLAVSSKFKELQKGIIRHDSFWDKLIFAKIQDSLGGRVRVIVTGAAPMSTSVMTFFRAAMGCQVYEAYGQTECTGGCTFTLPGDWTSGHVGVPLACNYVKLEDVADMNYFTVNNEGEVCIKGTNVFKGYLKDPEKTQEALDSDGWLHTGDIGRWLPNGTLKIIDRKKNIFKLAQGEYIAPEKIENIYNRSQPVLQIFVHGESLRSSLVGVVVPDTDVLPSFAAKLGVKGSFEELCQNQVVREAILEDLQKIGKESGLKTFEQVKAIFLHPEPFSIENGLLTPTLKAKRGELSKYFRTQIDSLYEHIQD

The target in experiment [3] is T2, Adenine phosphoribosyltransferase (Homo sapiens, UniProt P07741).
T2 sequence (P07741 whole entry): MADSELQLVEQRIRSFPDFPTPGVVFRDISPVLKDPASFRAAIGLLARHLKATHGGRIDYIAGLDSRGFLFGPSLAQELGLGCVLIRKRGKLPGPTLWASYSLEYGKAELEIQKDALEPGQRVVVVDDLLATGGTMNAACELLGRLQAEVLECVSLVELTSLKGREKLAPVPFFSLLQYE

Experiment [4] addresses Dual specificity protein kinase CLK2 (Homo sapiens, UniProt P49760).
Experiment [5] has as its target T3, UMP-CMP kinase (Homo sapiens, UniProt P30085).
T3 sequence (P30085 whole entry): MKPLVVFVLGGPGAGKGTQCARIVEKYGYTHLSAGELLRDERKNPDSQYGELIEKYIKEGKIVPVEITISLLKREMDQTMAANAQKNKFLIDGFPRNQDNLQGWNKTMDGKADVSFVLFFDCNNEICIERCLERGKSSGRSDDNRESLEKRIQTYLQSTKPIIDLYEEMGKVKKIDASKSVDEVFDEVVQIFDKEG

Experiment [6] deals with Epidermal growth factor receptor (Homo sapiens, UniProt P00533).
Experiment [7] addresses Ephrin type-A receptor 7 (Homo sapiens, UniProt Q15375).
Experiment [8] deals with Guanine nucleotide-binding protein G(i) subunit alpha-2 (Homo sapiens, UniProt P04899).
The target in experiment [9] is G protein-coupled receptor kinase 6 (Homo sapiens, UniProt P43250).
G protein-coupled receptor kinase 6, sequence (P43250 whole entry): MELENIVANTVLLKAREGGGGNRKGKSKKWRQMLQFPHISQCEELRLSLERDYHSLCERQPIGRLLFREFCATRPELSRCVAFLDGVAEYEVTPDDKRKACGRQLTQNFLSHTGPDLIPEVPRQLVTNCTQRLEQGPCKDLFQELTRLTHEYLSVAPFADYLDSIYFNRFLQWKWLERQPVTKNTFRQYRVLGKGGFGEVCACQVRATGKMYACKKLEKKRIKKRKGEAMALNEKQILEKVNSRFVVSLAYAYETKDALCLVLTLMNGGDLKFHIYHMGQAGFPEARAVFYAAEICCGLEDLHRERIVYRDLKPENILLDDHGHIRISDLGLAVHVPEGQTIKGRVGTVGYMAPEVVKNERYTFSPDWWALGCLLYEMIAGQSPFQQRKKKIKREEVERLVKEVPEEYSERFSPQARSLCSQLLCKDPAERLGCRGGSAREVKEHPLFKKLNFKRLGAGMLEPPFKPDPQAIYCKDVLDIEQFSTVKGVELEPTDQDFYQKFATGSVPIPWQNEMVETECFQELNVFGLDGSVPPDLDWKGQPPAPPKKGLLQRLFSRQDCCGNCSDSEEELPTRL
The target in experiment [10] is Mitogen-activated protein kinase 14 (Homo sapiens, UniProt Q16539).
In experiment [11] the target is Obg-like ATPase 1 (Homo sapiens, UniProt Q9NTK5).
For experiment [12], the target named is Choline-phosphate cytidylyltransferase A (Homo sapiens, UniProt P49585).
Choline-phosphate cytidylyltransferase A, sequence (P49585 whole entry): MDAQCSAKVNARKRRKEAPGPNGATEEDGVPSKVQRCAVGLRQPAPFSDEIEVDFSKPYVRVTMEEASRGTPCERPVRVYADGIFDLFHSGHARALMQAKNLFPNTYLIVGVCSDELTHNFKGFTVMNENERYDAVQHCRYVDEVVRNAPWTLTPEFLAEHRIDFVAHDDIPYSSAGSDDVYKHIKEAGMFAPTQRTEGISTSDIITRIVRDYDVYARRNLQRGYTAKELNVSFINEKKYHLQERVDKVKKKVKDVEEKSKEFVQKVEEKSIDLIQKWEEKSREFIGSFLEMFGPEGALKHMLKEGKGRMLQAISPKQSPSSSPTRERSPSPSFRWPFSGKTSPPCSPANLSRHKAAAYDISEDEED
Experiment [13] addresses Phosphatidylethanolamine-binding protein 1 (Homo sapiens, UniProt P30086).
Experiment [14] concerns the target Membrane-associated progesterone receptor component 1 (Homo sapiens, UniProt O00264).
Experiment [15] concerns the target Serine/threonine-protein kinase PLK1 (Homo sapiens, UniProt P53350).
Experiment [16] addresses Protein kinase C theta type (Homo sapiens, UniProt Q04759).
Experiment [17] addresses Proto-oncogene tyrosine-protein kinase receptor Ret (Homo sapiens, UniProt P07949).
In experiment [18] the target is T4, Dual specificity protein kinase TTK (Homo sapiens, UniProt P33981).
T4 sequence (P33981 whole entry): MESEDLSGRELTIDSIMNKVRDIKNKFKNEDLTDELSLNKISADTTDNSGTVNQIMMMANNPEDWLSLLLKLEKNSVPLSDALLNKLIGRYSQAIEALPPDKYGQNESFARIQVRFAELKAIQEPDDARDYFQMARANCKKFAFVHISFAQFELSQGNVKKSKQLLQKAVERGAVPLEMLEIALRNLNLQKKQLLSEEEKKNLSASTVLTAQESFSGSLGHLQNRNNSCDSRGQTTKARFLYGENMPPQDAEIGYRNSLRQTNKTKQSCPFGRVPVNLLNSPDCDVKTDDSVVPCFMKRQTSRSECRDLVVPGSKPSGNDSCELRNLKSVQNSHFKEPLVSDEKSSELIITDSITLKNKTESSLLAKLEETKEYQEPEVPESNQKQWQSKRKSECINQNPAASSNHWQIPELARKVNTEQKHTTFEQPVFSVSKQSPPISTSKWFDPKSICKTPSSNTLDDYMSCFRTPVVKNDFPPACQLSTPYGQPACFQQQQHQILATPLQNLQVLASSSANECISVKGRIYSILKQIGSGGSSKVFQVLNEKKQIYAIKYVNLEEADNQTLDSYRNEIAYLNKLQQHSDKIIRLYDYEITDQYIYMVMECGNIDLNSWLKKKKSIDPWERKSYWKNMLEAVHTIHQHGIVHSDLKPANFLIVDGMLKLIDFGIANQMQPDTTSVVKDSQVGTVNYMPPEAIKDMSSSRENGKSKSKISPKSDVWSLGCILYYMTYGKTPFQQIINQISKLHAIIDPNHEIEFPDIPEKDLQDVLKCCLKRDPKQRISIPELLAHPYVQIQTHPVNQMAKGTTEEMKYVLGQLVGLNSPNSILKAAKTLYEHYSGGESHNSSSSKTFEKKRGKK

Experiment [19] addresses Cell division cycle 7-related protein kinase (Homo sapiens, UniProt O00311).
Experiment [20] concerns the target Serine/threonine-protein kinase 24 (Homo sapiens, UniProt Q9Y6E0).
Also: in the data inactive means no Kd found up to 30 µM.

Dual specificity protein kinase CLK3, sequence (P49761 whole entry): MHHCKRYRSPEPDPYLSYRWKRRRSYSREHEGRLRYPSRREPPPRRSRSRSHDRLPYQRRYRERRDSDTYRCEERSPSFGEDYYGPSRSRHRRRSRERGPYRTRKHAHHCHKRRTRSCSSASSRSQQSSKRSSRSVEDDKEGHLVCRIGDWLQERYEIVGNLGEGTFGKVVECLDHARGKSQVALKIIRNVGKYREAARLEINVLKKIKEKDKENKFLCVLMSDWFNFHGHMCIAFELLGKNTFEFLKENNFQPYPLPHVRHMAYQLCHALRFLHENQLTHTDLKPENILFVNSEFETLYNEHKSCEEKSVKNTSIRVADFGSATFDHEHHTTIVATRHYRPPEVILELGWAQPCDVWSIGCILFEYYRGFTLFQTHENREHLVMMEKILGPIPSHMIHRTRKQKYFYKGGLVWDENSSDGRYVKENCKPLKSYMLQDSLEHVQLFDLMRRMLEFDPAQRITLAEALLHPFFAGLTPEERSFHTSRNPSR
Membrane-associated progesterone receptor component 1, sequence (O00264 whole entry): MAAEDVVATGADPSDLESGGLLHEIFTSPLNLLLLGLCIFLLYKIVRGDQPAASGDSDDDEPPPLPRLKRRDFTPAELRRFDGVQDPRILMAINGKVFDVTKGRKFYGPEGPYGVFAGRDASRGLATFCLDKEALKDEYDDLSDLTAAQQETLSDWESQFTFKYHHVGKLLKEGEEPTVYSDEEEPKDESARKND
Phosphatidylethanolamine-binding protein 1, sequence (P30086 whole entry): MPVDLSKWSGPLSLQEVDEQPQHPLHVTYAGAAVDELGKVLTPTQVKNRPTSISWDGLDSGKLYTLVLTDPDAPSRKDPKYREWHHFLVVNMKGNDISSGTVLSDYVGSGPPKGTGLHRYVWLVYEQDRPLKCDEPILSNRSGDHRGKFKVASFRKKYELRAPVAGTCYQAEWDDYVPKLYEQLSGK
Protein kinase C theta type, sequence (Q04759 whole entry): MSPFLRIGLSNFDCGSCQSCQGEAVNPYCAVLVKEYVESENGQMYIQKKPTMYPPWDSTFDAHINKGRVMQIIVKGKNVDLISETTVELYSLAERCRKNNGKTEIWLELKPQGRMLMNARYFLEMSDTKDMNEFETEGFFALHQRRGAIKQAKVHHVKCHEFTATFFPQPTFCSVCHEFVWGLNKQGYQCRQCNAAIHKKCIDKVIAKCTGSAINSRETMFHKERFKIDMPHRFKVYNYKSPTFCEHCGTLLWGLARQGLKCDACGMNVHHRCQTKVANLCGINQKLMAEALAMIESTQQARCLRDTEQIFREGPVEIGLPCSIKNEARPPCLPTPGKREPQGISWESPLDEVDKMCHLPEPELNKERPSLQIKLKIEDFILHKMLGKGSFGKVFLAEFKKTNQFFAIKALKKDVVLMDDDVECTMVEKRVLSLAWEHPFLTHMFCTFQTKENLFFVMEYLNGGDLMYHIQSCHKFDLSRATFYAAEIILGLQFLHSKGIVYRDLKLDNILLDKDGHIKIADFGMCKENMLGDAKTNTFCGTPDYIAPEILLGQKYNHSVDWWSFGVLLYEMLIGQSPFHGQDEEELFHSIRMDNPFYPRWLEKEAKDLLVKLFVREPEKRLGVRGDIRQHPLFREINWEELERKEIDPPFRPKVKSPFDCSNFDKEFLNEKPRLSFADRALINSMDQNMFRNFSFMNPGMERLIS
Proto-oncogene tyrosine-protein kinase receptor Ret, sequence (P07949 whole entry): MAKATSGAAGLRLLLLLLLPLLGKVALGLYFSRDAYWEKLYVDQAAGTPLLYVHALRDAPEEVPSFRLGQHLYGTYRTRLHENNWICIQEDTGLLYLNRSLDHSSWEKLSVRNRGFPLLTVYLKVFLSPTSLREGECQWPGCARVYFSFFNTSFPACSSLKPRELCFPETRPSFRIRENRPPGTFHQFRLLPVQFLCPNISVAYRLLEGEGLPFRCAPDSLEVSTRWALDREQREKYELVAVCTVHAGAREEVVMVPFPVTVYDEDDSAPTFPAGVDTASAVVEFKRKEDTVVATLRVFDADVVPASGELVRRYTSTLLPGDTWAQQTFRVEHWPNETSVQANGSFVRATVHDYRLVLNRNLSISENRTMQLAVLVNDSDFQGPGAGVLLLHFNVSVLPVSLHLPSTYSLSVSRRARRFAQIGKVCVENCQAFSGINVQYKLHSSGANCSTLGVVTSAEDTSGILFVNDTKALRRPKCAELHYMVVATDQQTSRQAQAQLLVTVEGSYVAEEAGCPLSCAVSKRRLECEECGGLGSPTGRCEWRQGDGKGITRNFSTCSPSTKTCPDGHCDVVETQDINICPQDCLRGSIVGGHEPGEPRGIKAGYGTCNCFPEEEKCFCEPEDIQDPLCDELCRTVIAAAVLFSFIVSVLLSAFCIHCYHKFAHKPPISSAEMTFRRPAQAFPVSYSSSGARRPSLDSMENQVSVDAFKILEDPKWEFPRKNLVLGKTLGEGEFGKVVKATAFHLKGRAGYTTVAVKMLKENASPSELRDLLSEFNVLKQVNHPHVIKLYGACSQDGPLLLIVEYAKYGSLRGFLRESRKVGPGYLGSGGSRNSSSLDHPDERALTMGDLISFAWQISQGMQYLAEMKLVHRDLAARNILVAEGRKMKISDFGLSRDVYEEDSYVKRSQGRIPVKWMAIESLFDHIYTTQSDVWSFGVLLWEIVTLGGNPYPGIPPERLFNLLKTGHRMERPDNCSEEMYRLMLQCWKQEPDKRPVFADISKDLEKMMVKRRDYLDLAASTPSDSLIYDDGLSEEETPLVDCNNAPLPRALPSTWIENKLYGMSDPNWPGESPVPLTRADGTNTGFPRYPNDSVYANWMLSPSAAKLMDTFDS
Dual specificity protein kinase CLK2, sequence (P49760 whole entry): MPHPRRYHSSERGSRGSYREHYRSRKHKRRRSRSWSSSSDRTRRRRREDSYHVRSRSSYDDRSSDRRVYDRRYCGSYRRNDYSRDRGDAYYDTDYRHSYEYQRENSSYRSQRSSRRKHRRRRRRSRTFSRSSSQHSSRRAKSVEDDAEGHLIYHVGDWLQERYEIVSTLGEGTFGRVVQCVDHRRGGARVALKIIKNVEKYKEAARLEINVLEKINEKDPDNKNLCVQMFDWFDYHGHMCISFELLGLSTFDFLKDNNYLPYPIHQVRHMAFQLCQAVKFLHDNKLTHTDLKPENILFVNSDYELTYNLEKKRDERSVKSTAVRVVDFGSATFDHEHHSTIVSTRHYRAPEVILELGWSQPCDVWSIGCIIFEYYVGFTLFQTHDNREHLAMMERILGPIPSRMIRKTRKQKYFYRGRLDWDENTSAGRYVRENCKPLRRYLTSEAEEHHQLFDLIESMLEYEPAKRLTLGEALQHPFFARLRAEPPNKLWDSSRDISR
Cell division cycle 7-related protein kinase, sequence (O00311 whole entry): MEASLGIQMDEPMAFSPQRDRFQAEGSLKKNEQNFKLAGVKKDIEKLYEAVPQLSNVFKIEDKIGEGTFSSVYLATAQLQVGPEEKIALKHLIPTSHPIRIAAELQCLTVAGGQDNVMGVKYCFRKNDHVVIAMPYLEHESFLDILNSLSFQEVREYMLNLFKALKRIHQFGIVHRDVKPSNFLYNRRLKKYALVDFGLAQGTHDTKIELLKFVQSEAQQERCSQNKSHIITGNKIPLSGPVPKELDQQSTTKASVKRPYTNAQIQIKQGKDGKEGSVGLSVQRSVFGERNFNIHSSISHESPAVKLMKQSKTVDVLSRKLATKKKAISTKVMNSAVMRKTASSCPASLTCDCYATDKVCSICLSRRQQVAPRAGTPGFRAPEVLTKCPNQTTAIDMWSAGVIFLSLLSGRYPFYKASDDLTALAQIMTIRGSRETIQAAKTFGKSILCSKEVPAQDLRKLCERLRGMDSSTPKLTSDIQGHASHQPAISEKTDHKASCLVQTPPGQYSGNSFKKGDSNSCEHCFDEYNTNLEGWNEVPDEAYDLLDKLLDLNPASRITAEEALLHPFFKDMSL

In the case of `Cc1ccc(NC(=O)c2ccc(CN3CC[C@H](N(C)C)C3)c(C(F)(F)F)c2)cc1Nc1nccc(-c2cncnc2)n1` [BAFETINIB], the Kd in experiment [1], in [2], in experiment [3], in experiment [4], in experiment [5] and in experiment [6] was > 30 µM (inactive) in each case. In addition, the Kd in experiment [7] was > 30 µM (inactive); in [8], > 30 µM (inactive); in experiment [9], > 30 µM (inactive); in experiment [10], 0.536 µM (active); in experiment [11] it was > 30 µM (inactive); in [12], > 30 µM (inactive). Also, the Kd is > 30 µM (inactive) in experiment [13]; > 30 µM (inactive) in [14]; > 30 µM (inactive) in experiment [15]; > 30 µM (inactive) in experiment [16]; 2.42 µM (active) in experiment [17]; > 30 µM (inactive) in experiment [18].

As to `CC(=O)Nc1cccc(-n2c(=O)n(C3CC3)c(=O)c3c(Nc4ccc(I)cc4F)n(C)c(=O)c(C)c32)c1` [TRAMETINIB], the Kd in experiment [1], in experiment [3], in experiment [19], in experiment [4], in [5] and in experiment [6] was > 30 µM (inactive) each time. Moreover, the Kd in [7], in experiment [8], in experiment [9], in experiment [10], in experiment [11] and in experiment [12] was > 30 µM (inactive) throughout. In addition, the Kd in experiment [13], in experiment [14], in experiment [15], in experiment [16], in experiment [17] and in experiment [20] was > 30 µM (inactive) throughout. Besides, the Kd in [18] is > 30 µM (inactive).

On to `OCCn1cc(-c2cnc3nnn(Cc4ccc5ncccc5c4)c3n2)cn1` [PF-04217903], for which the Kd in [1], in experiment [2], in experiment [3], in experiment [19], in experiment [5] and in experiment [6] was > 30 µM (inactive) in each case. Besides, the Kd in [7], in experiment [8], in [11], in [12], in [13] and in experiment [14] was > 30 µM (inactive) in each case. Further, the Kd in [15], in experiment [20] and in experiment [18] was > 30 µM (inactive) each time.

With `CN1CCC(COc2cnc(-c3cccc(Cn4nc(-c5cccc(C#N)c5)ccc4=O)c3)nc2)CC1` [TEPOTINIB], the Kd in experiment [1], in [2], in [3], in [5], in [7] and in [8] was > 30 µM (inactive) each time. Further, the Kd in [9], in [11], in [13], in experiment [14], in [15] and in [16] was > 30 µM (inactive) each time. Also, the Kd in experiment [17] and in experiment [18] was > 30 µM (inactive) in each case.

For `CNC(=O)c1cc(Oc2ccc(NC(=O)Nc3ccc(Cl)c(C(F)(F)F)c3)c(F)c2)ccn1` [REGORAFENIB], the Kd in experiment [1], in experiment [2], in [3], in experiment [4], in [5] and in experiment [6] was > 30 µM (inactive) each time. In addition, the Kd in experiment [8] was > 30 µM (inactive); in [9], > 30 µM (inactive); in experiment [10] it was 0.705 µM (active); in [11] it was > 30 µM (inactive); in experiment [12] it was > 30 µM (inactive); in [13] it was > 30 µM (inactive). For the same molecule, the Kd is > 30 µM (inactive) in [14]; > 30 µM (inactive) in [15]; > 30 µM (inactive) in [16]; > 30 µM (inactive) in experiment [20]; 3.92 µM in [18].

For the molecule `Cc1c(F)cc(C(=O)NC2CC2)cc1-c1ccc(C(=O)NCC(C)(C)C)cn1` [LOSMAPIMOD], the Kd in [1] is > 30 µM (inactive); in experiment [2] it was 1.69 µM; in [3], > 30 µM (inactive); in experiment [4], > 30 µM (inactive); in [6], > 30 µM (inactive); in experiment [7], > 30 µM (inactive). Also, the Kd in experiment [8], in experiment [9], in experiment [11], in [15], in experiment [16] and in experiment [17] was > 30 µM (inactive) throughout. Besides, the Kd in experiment [20] was 0.011 µM; in experiment [18], > 30 µM (inactive).

As for `O=C1NC(=O)/C(=C/c2ccc3nccc(-c4ccncc4)c3c2)S1` [GSK-1059615], the Kd in experiment [1] was > 30 µM (inactive); in experiment [19] it was > 30 µM (inactive); in experiment [4], 0.0004 µM (active); in experiment [6], > 30 µM (inactive); in experiment [7], > 30 µM (inactive); in experiment [8], > 30 µM (inactive). In addition, the Kd in experiment [9], in experiment [10], in [11], in [14], in [15] and in experiment [16] was > 30 µM (inactive) each time. The Kd in experiment [17], in experiment [20] and in experiment [18] was > 30 µM (inactive) each time.
